Assay results from EP0910652B1, “HORMONE-MEDIATED METHODS FOR […] EXOGENOUS GENES IN MAMMALIAN SYSTEMS, AND PRODUCTS RELATED THERETO” (THE SALK INSTITUTE FOR BIOLOGICAL STUDIES, priority 1996, dated 1997).

Tests used:
[1] = test system: modified ecdysone receptor VpEcR (SEQ ID NO:7; N-terminal truncation of EcR fused to VP16 activation domain) with RXR; test: Transient transfection reporter assay in CV-1 cells, muristerone responsiveness; type: cell-based; conditions: 1µM muristerone A vs no hormone
Method: (§1) CV-1 cells were maintained in DMEM supplemented with 10% Fetal Bovine Serum. Transient transfections were performed using DOTAP transfection reagent (Boehringer-Mannheim). Transfections using ß-galactosidase as the reporter were assayed either by Galactolight luminescent assay (Tropix, Bedford, MA) or by standard liquid ONPG assay (Sigma, St. Louis, MO). The values were normalized by co-transfection of CMX-luciferase. Transfections using luciferase as the reporter were assayed by standard techniques using luciferin and ATP. These values were normalized by co-transfection of CMX-ß-galactosidase. Hormone treated cells were treated with ethanol, 50 µM Juvenile Hormone III (Sigma), 1µM muristerone A (Zambon, Bresso, IT), or 1µM dexamethasone (Sigma) unless otherwise noted.

[2] = test system: adult mice; test: Toxicity study in adult mice; type: in vivo; conditions: 20mg muristerone A in sesame oil, intraperitoneal, observed approximately two months
Method: In order to use muristerone as a potential hormone in mice, its toxicity and bioavailability was examined. For toxicity studies, adult mice were injected intraperitonealy with 20mg of muristerone A suspended in sesame oil. The mice were then observed for approximately two months. […] In addition to the inert qualities of muristerone (an ecdysone), overexpression of VpEcR and RXR appears not to be toxic.

[3] = test system: VpEcR and RXR (CD3-VpEcR; CD3-RXR) with ecdysone inducible reporter ESHß; test: Muristerone dependent gene expression in receptor/reporter transgenic mice, Northern blot; type: in vivo; conditions: 10mg muristerone intraperitoneal, RNA isolated 48 hours after treatment
Method: To produce transgenic mice, the following DNA constructs were prepared and subsequently injected into fertilized eggs: CD3-VpEcR, CD3-RXR, ESHß (Lee et al., J. Exp. Med. 175:1013-1025 (1992)). Two separate lines of transgenic mice were generated harboring either an ecdysone inducible reporter, ESHß, or a T-cell specific expression construct of VpEcR and RXR, respectively. The former are referred to as reporter mice, the latter are referred to as receptor mice, and double transgenic mice are referred to as receptor/reporter mice. Constructs CD3-VpEcR and CD3-RXR were mixed and coinjected, while ESHß was injected alone. Primary genotyping was performed by Southern blot analysis and the transmission of transgenic mice was monitored by dot blot analysis. Receptor mice were analyzed for VpEcR and RXR expression by Northern blot analysis of RNA collected from these mice. For Northern blot analysis, 15µg of total RNA obtained from the thymus, and various tissues as a control, was run on a denaturing gel and blotted onto a nitrocellulose membrane. The blot was probed with a radiolabeled ß-gal-specific probe and exposed on film for 2 days. These receptor mice were healthy, fertile, and appeared normal by visual inspection. In addition, the transgene was transferred to the offspring as expected by Mendelian genetics. […]

[4] = test system: VpEcR (SEQ ID NO:7) with RXR (CMX-hRXRa) in N13 cells; test: Ecdysone responsiveness in stable cell line N13 (293 cells), ß-galactosidase and luciferase reporters; type: cell-based; conditions: 36 hours
Method: Stable cell lines were generated containing the modified ecdysone receptor VpEcR, a heterodimeric partner (RXR), and an ecdysone inducible reporter (Figure 2). 293 cells were transfected with the following linearized plasmids, pRC-ESHß, EcREx5-ΔMTV-Luc, CMX-VpEcR, and CMX-hRXRa. The following day, the cells were split 1:10 and were allowed to recover one day prior to selection with 1mg/ml G418 (GIBCO). After 14 days of selection, 14 individual clones were isolated and grown separately in the presence of 0.5mg/ml G418.
One of these cell lines, N13, was grown in the presence or absence of 1µM muristerone for 20 hours. Cell lysates were then assayed for ß-galactosidase and luciferase activities as described in Example 1. X-gal staining was performed on the stable cell lines. Cells were fixed briefly with 10% formaldehyde in PBS and then stained with X-Gal (Molecular Probes, Eugene, OR) for 2 to 6 hours. After 24 hours of treatment with 1µM muristerone, 100% of the cells turned dark blue after 3 hours of staining. Thus, mammalian cells containing the modified ecdysone receptor VpEcR, a heterodimeric partner (RXR), and a reporter gene construct regulated by a modified ecdysone response element, function to efficiently express an exogenous gene in response to a ligand, e.g., ecdysone. […]
Finally, the kinetics of muristerone mediated induction was measured. […]

[5] = test system: pregnant mice; test: Teratogenic study in pregnant mice; type: in vivo; conditions: 20mg muristerone A in sesame oil, mother and pups observed for three months
[6] = test system: ecdysone receptor (EcR) with its natural heterodimeric partner USP; test: Transient transfection reporter assay in CV-1 cells, muristerone responsiveness; type: cell-based; conditions: 1µM muristerone A vs ethanol
Method: as §1
(§2) To maximize the sensitivity of the invention ecdysone inducible system, modifications of the ecdysone receptor were made. The N-terminal transactivation domain of the ecdysone receptor was replaced by the corresponding domain of the glucocorticoid receptor (GR), resulting in the modified ecdysone receptor GEcR (See Figure 1D). CV-1 cells were transfected with the plasmid CMX-GEcR encoding the modified ecdysone receptor as discussed above. After transfection, cells were either treated with ethanol or 1µM muristerone A. This hybrid modified ecdysone receptor boosted muristerone responsiveness from 3- to 11-fold in a transient transfection assay (Fig. 1A).

[7] = test system: modified ecdysone receptor GEcR (SEQ ID NO:9) with retinoid X receptor (RXR); test: as above; type: cell-based; conditions: 1µM muristerone A vs ethanol
Method: as §1, §2

[8] = test system: modified ecdysone receptor GEcR (SEQ ID NO:9; N-terminal transactivation domain of GR, DNA- and ligand-binding domains of EcR) with USP; test: as above; type: cell-based; conditions: 1µM muristerone A vs ethanol
Method: as §1, §2

[9] = test system: CV-1 cells transfected with CMX-GEcR, CMX-hRXRa, and EcREx5-DMTV-Luc; test: Muristerone bioavailability: serum of injected mice tested on transfected CV-1 cells; type: in vivo
Method: For muristerone bioavailability studies, adult mice were injected intraperitoneally with sesame oil with or without 10mg of muristerone, and were subsequently sacrificed for serum collection. After twelve hours, blood was drawn from the mice, and the serum was isolated by brief centrifugation of the whole blood. In order to conduct transfection assays to test for muristerone activity, serum from sesame oil injected mice was divided, and half was supplemented with muristerone to a final concentration of 10µM. The three batches of mouse serum were diluted 1:10 in DMEM and placed onto CV-1 cells transfected with CMX-GEcR, CMX-hRXRa, and EcREx5-DMTV-Luc.

Compound: CC(C)CC[C@@H](O)[C@](C)(O)[C@H]1CC[C@@]2(O)C3=CC(=O)[C@]4(O)C[C@@H](O)[C@@H](O)C[C@]4(C)[C@H]3[C@H](O)C[C@]12C [muristerone A]
- induction [1]: 212 fold
- toxicity [2]: neither toxic
- induction from an ecdysone inducible promoter in the thymus [3]: significant induction
- inducibility ([4]; final concentration 10µM muristerone, ß-galactosidase and luciferase reporters): ~3 orders of magnitude
- induction ([4]; muristerone concentrations as low as 100nM): One-hundred
- teratogenicity [5]: neither toxic, teratogenic
- muristerone responsiveness (induction) [6]: 3 fold
- induction [7]: 34 fold
- muristerone responsiveness (induction) [8]: 11 fold
- luciferase activity of serum from muristerone treated mice ([9]; 10mg muristerone intraperitoneal, serum after twelve hours, diluted 1:10 in DMEM): comparable to that seen from untreated mouse serum supplemented with 1µM muristerone
- activity when injected into mice ([9]; injected into mice): maintains its activity
- inactivation by serum binding proteins ([9]; injected into mice): nor inactivated by serum binding proteins
- blunting of activity due to association with serum proteins ([9]; mouse serum): little or no blunting of activity
